# From US9303069B2, “Peptides for treating cancer” (University of Mississippi Medical Center, priority 2014, dated 2016)
# Ends that are not written are not given here.
# What was measured:
# Assay type in all cases: cell-based, human
# HOSE cells = details: 48 h
# Experimental: (§1) Thus, a peptide (hereafter IRIS peptide) composed of a cell/nucleus penetrating signal (FIG. 26) fused to BRCA1-IRIS intron 11 (FIG. 26) was synthesized. Equal numbers of HOSE, HOSE/IRIS, SKOV3, OVCAR3, OVCAR420 and OV-90 cells were grown in the presence of increasing concentrations of IRIS peptide for 48 hours.
# (§2) Cell viability measurement. Cell viability under different experimental conditions was determined using the MTS assay […]. Briefly, SKOV3, OVACAR3, HOSE and HOSE/IRIS cells (2.5×10^4 cells per well) were seeded in 96 well plates and incubated overnight at 37° C. in 10% humidified CO2 atmosphere in varying concentrations of IRIS peptide, or inhibitors of ErbB2 (CP-724714), EGFR (Erlotinib), TrkB (K252a), JNK (SP600125), p38 (SB203580), ERK (PD98059) and PI3′K/AKT (LY294002) inhibitors for 24 hours at 37° C. Cell Titer 96® Aqueous (Promega, Madison, Wis., USA) was used to measure viability following manufactures instructions. Cell viability (%) was expressed as a ratio to control cells×100. Growth inhibition was also determined by manually counting cells in five different microscopic fields. Change in cell numbers (fold) was expressed as a ratio to control cells×100. All experiments were done in at least triplicates, three different times. * is p≦0.05, ** is p≦0.001 and *** is p≦0.0001.
# OVCAR3 cells = details: 48 h
# Experimental: as §1, §2
# OVCAR420 cells = details: 48 h
# Experimental: as §1, §2
# OV-90 cells = details: 48 h
# Experimental: as §1, §2
# HOSE/IRIS cells = details: 48 h
# Experimental: as §1, §2
# [1] = tested on: HME, MDA-MB-231, MDA-MB-468 and BT549 cells; assay: Survival of breast cell lines after siRNA transfection followed by IRIS peptide; details: siRNA 48 hours, then IRIS peptide 24 hours
# Experimental: To rule out any off target effect of this peptide, HME, MDA-MB-231, MDA-MB-468 and BT549 cells were first transfected with luciferase (siLuc) or BRCA1-IRIS (siIRIS) siRNA for 48 hours before they were exposed to increasing concentrations of IRIS peptide for an additional 24 hours. As would be expected from treatments that target the same target, whether inactivating BRCA1-IRIS (FIG. 81) or depleting its mRNA first (FIG. 82) the percentages of cells remained following these treatments were identical (see FIG. 83).
# Small interfering RNA transfections. Specific siRNAs for luciferase (negative control) or human BRCA1-IRIS were obtained from Ambion, USA. Transfection was done using Oligofectamine™ reagent (GibcoBRL Inc, USA) and standard protocol (for reference see ElShamy and Livingston, 2004). Knockdwon of the target protein was usually confirmed by Western blotting 72 hours later. Cell viability was evaluated by MTS or by manual counting after 72 hours of siRNA transfection or combined with paclitaxel (24 hour exposure). Each experiment was done in triplicate, repeated three separate times
sequence,measurement,setting,value
RRIRPRPPRLPRPRPRPLPFPRPGIGTRFLCLPQSIYRSELNVYAFGEHILQISKYS [IRIS peptide],IC50,HOSE cells,~1 µM
same,IC50,OVCAR3 cells,~10 µM
same,IC50,OVCAR420 cells,~1 µM
same,IC50,OV-90 cells,~5 µM
same,IC50,HOSE/IRIS cells,~10 µM
same,"percentages of cells remaining, IRIS peptide after siIRIS versus after siLuc",[1],identical
